Test results as given in US20050202078A1, “Vesicle-encapsulated corticosteroids for the treatment of cancer” (priority 2002, published 2005).

How the values were obtained:
B16 murine melanoma [1] = assay: Tumor growth inhibition, effect of tumor size (time of injection), B16 model; type: in vivo, C57B1/6 mice
Description: (§1) FIG. 3: Effect of tumor size on anti-tumor effects of free or liposomal PLP in B16- or C26-bearing mice. Mice received either single or multiple injections with 20 mg/kg PLP of the indicated formulations. Arrows indicate treatment. Mean±S.D. is reported. N=5 mice/experimental group; and
(§2) B16 murine melanoma and C26 murine colon carcinoma cells were cultured at 37° C. in a 5% CO2-containing humidified atmosphere in DMEM medium (Gibco, Breda, The Netherlands) containing 10% (v/v) fetal calf serum supplemented with 2 mM L-glutamine, 100 IU/ml penicillin, 100 μg/ml streptomycin and 0.25 μg/ml amphotericin B (Gibco).
(§3) As a reference, B16F10 tumors became palpable around seven days and C26 tumors around eleven days after tumor cell inoculation. Tumor size was measured regularly and tumor volume was calculated as described above.
(§4) To determine the effect of time of injection of free or liposomal PLP on tumor growth inhibition, the formulations were injected at a dose of 20 mg/kg at day 1, 7 and 14 or single injection at day 7 or day 14. See, in this light, FIG. 3 showing the results.

[2] = tested on: C26 murine colon carcinoma; assay: Tumor growth inhibition, effect of dose, C26 model; type: in vivo, Balb/c mice; conditions: 20 mg/kg or 50 mg/kg, single injection; one week later
Description: (§5) FIG. 2: Effect of dose of free or liposomal PLP on tumor growth in B16- or C26-bearing mice. Mice received a single injection with the indicated dose and formulation of PLP on the day tumors became palpable. Tumor volume one week later is reported. Mean±S.D. N=5 mice/experimental group;
as §2
(§6) Tissue distribution of ^111In-labeled PEG liposomes in tumor-bearing mice. 1×10^5 B 16 or C26 cells were inoculated subcutaneously in the flank of C57B1/6 of Balb/c mice, respectively. […] At 6 hours and 24 hours after injection, animals were sacrificed, a blood sample was taken, and tumor, lung, liver, spleen and kidneys were dissected, weighed and radioactivity was counted. […]
(§7) Mice received a single intravenous injection of an indicated dose of free PLP or liposomal PLP at the time when the tumor became palpable. At seven days after treatment, tumor size was measured and tumor volume calculated according to the equation V=0.52×a^2×b, wherein a is the smallest and b is the largest superficial diameter.

[3] = tested on: C26 murine colon carcinoma; assay: Tumor growth inhibition, effect of tumor size (time of injection), C26 model; type: in vivo, Balb/c mice
Description: as §1, §2, §3, §4

B16 murine melanoma [4] = assay: Tumor growth inhibition, effect of dose, B16 model; type: in vivo, C57B1/6 mice; conditions: 20 mg/kg or 50 mg/kg, single injection; one week later
Description: as §5, §2, §6, §7

[5] = single injection 20 mg/kg at day 7

**Q.** How did the “tumor growth inhibition between day 1 and day 7” value (B16 murine melanoma [1]; 20 mg/kg i.v. at day 1) turn out when “prednisolone disodium phosphate [free PLP]” was run?
**A.** Its value is “Neither liposomal PLP nor free PLP inhibited tumor growth”.

**Q.** And the “tumor growth inhibition as compared to controls, between day 7 and day 14” value (B16 murine melanoma [1]; 20 mg/kg i.v. at day 1 and second injection at day 7, p<0.05)?
**A.** Its value is “did not reduce tumor volume”.

**Q.** And the “significantly smaller tumor volume after single injection” value (B16 murine melanoma [1]; [5])?
**A.** The value was “only seen after treatment with liposomal PLP”.

**Q.** And the “tumor volume compared to buffer-treated control animals” value [2]?
**A.** Its value is “did not result in significantly different tumor volumes”.

**Q.** What about the “tumor growth inhibition between day 1 and day 7” value ([3]; 20 mg/kg i.v. at day 1) of the same substance?
**A.** The value was “Neither liposomal PLP nor free PLP inhibited tumor growth”.

**Q.** What about the “tumor growth inhibition, multiple injections” value ([3]; 20 mg/kg i.v. at day 1, 7 and 14) of the same substance?
**A.** Its value is “did not inhibit tumor growth”.

**Q.** What about the “significance of tumor volume compared to controls” value [3, 5] of the same substance?
**A.** Its value is “not significantly smaller with either treatment”.

**Q.** And the “tumor volume compared to buffer-treated control animals” value (B16 murine melanoma [4])?
**A.** Its value is “did not result in significantly different tumor volumes”.
